In patent US20050267096A1, “New indazole and indolone derivatives and their use pharmaceuticals” (Pfizer Inc, priority 2004, published 2005):

What was measured:
dopamine D3 receptor = dopamine D3 receptor (Homo sapiens, UniProt P35462); experiment: D3/D2 agonist assay, functional potency at D3 receptor; assay type: cell-based
Description: (§1) Activity at the dopamine D3 receptor may be determined using the methods described in WO 2004/052372. […] Selectivity is calculated as the D2 EC50 value divided by the D3 EC50 value. Where the value of the D2 EC50 was >10000, a figure of 10000 was used in the calculation.
(§2) Against the D2 receptor this compound gave only a 28% repsonse (relative to the maximal effect of pramipexole) at 1000 nM. Suitable auxiliary active agents for use in the combinations of the present invention include: • 1) Naturally occurring or synthetic prostaglandins or esters thereof. Suitable prostaglandins for use herein include compounds such as alprostadil, prostaglandin E1, prostaglandin E0, 13,14-dihydroprosta glandin E1, prostaglandin E2, eprostinol, natural synthetic and semi-synthetic prostaglandins and derivatives thereof including those described in WO-00033825 and/or U.S. Pat. No. 6,037,346 issued on 14 Mar. 2000 all incorporated herein by reference, PGE0, PGE1, PGA1, PGB1, PGF1 α, 19-hydroxy PGA1, 19-hydroxy-PGB1, PGE2, PGB2, 19-hydroxy-PGA2, 19-hydroxy-PGB2, PGE3α, carboprost tromethamine dinoprost, tromethamine, dinoprostone, lipo prost, gemeprost, metenoprost, sulprostune, tiaprost and moxisylate; • 2) α-adrenergic receptor antagonist compounds also known as α-adrenoceptors or α-receptors or α-blockers. […]

dopamine D2 receptor = dopamine D2 receptor (Homo sapiens, UniProt P14416); experiment: D3/D2 agonist assay, functional response at D2 receptor; assay type: cell-based; settings: at 1000 nM; relative to the maximal effect of pramipexole
Description: as §1, §2

Chain of dopamine D3 receptor (P35462 whole entry, species assumed): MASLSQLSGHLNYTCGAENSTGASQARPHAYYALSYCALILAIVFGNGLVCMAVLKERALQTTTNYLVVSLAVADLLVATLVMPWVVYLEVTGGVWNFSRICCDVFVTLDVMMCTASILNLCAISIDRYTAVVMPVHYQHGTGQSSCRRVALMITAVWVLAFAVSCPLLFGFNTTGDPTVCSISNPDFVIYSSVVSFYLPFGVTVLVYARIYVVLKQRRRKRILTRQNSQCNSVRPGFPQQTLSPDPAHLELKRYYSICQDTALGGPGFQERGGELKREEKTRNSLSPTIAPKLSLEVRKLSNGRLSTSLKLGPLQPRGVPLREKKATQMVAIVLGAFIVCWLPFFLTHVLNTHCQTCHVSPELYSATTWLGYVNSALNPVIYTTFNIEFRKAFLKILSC
Chain of dopamine D2 receptor (P14416 whole entry): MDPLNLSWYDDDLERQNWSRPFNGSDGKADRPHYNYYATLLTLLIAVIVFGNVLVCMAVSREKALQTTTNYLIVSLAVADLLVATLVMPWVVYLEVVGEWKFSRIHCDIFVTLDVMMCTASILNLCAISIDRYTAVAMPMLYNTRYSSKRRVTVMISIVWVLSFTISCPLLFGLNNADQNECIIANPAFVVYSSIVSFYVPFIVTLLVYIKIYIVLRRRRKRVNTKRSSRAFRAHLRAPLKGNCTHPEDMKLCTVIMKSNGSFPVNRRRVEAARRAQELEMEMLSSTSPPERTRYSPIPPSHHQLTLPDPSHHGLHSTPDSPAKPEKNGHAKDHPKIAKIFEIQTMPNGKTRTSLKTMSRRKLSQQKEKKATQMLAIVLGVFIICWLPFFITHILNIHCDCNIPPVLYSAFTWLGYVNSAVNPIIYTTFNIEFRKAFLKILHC

## CCCN1CC(c2cccc3[nH]ncc23)C1 [Example 13, 4-(1-propylazetidin-3-yl)-1H-indazole]
Dopamine D3 receptor; methods described in WO 2004/052372, read-out: functional potency at the D3 receptor, expressed as an EC50
  EC50: 38 nM
Dopamine D3 receptor; relative to the maximal effect of standard agent pramipexole, read-out: Emax (maximal response value) at the D3 receptor
  Emax: 74%
Dopamine D2 receptor
  response against the D2 receptor: 28%
